Reference: PubChem BioAssay (NCI)
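Cultured in 96-well plates, cells were exposed to test compound for 48 hours across five concentrations. GI50 marks 50% less growth. The concentration for full growth arrest is given as TGI.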

How the values were obtained:
Assay in all cases: DTP human tumour cell line panel, 48 h
[1] = tested on: HCT-116 colon
[2] = tested on: HT29 colon
[3] = tested on: MOLT-4 leukemia
[4] = tested on: NCI/ADR-RES ovarian
[5] = tested on: OVCAR-5 ovarian
[6] = tested on: PC-3 prostate
[7] = tested on: RXF 393 renal
[8] = tested on: SN12C renal
[9] = tested on: TK-10 renal
[10] = tested on: SK-OV-3 ovarian

Row | Compound | GI50 [1] [µM] | TGI [1] [µM] | GI50 [2] [µM] | TGI [2] [µM] | GI50 [3] [µM] | TGI [3] [µM] | GI50 [4] [µM] | TGI [4] [µM] | GI50 [5] [µM] | TGI [5] [µM] | GI50 [6] [µM] | TGI [6] [µM] | GI50 [7] [µM] | TGI [7] [µM] | GI50 [8] [µM] | TGI [8] [µM] | GI50 [9] [µM] | TGI [9] [µM] | GI50 [10] [µM] | TGI [10] [µM]
1 | O=C1NC(=O)N(S(=O)(=O)c2cc(C(=O)Nc3ccc(Cl)cc3)c(Cl)cc2S)S(=O)(=O)N1 | 19.4 | 35.4 | 23.8 | > 100 | 19.4 | 47.6 | 28.1 | 85.6 | 19.4 | 35.3 | 17.8 | 52 | 0.67 | 18.2 | 21.9 | 50.2 | 23.8 | 45.5 |  | 
2 | O=C1Nc2ccc(Cl)cc2/C1=N/c1nc(-c2ccc(Cl)cc2)cs1 | 1.3 | 2.71 | 1.87 | 5.34 | 1.61 | > 100 |  |  | 1.91 | 4.43 |  |  |  |  |  |  | 2.88 | 6.13 | 1.5 | 4.54
3 | CC(C)(C)c1ccc(OCCOCCOc2ccc(C(C)(C)C)cc2S(N)(=O)=O)c(S(N)(=O)=O)c1 |  | > 100 |  | > 100 |  | 28.7 |  |  |  | > 100 |  |  |  | > 100 |  | > 100 |  | > 100 |  | > 100
4 | O=C(/C=C(\[O-])c1ccccc1)CCCCCCC(=O)/C=C(\[O-])c1ccccc1.O=C(/C=C(\[O-])c1ccccc1)CCCCCCC(=O)/C=C(\[O-])c1ccccc1.O=C(/C=C(\[O-])c1ccccc1)CCCCCCC(=O)/C=C(\[O-])c1ccccc1.[Y+3].[Y+3] | 14.9 | > 50 | > 50 | > 50 | 26.9 | > 50 |  |  | > 50 | > 50 |  |  | 11 | 37.4 | 47.3 | > 50 | > 50 | > 50 | > 50 | > 50
5 | CCCCC(C(=O)C(=O)Nc1ccccc1CC)C(=O)C(C)C (stereo not given) |  | > 100 |  | > 100 |  | > 100 |  |  |  | > 100 |  |  |  |  |  | > 100 |  | > 100 |  | > 100
6 | CN(C)c1ccc(/C=c2/sc3nc(=O)c(-c4ccccc4NC(=O)C(F)(F)F)nn3c2=O)cc1 |  |  |  | > 100 |  | > 100 |  |  |  | > 100 |  |  |  | > 100 |  | > 100 |  | > 100 |  | > 100
7 | O=C1c2ccccc2C2(O)N(c3ccccc3)C(=S)N(c3ccccc3)C12O (stereo not given) |  | > 100 |  | > 100 |  | > 100 |  |  |  | > 100 |  |  |  | > 100 |  | > 100 |  | > 100 |  | > 100
8 | ON1CCc2c([nH]c3ccccc23)C1c1ccc(Cl)cc1 (stereo not given) |  | 15.4 |  | 40.1 |  | 79.7 |  |  |  | 99.1 |  |  |  | 60.3 |  | 81 |  | > 100 |  | > 100
9 | C/C(=C\c1ccccc1)C(O)C(=O)c1nc2ccc(Cl)cc2[nH]c1=O (stereo not given) |  | > 100 |  | > 100 |  | > 100 |  |  |  | > 100 |  |  |  |  |  | > 100 |  | > 100 |  | > 100
10 | CCOC(=O)C1C(NC(N)=O)N(Cc2ccccc2)C(=O)N1Cc1ccccc1 (stereo not given) |  | > 100 |  | > 100 |  | > 100 |  |  |  | > 100 |  |  |  |  |  |  |  | > 100 |  | > 100
11 | CNCc1cccc2c1OCCOCCOCCNS(=O)(=O)c1ccc(cc1)-c1cnc(N)c(n1)C(=O)N2 | 0.67 | 2.67 | 1.31 | 3.76 | 0.557 | 7.68 | 84.3 | > 100 | 2.72 | 6.37 |  |  | 0.353 | 1.72 | 1.22 | 3.79 | 1.98 | 8.49 | 0.543 | 8.01
12 | CCCCCNC(=O)CCCCCCCCCCCNC(=O)CCCCCCCCCCN1C=CC(=CC=C2C=CC(=O)C=C2)C=C1 |  | > 100 |  | > 100 |  | > 100 |  |  |  | > 100 |  |  |  | > 100 |  | > 100 |  |  |  | > 100
13 | O=[N+]([O-])c1ccc(/C=C/c2ccc(/C=C/c3ccc([N+](=O)[O-])cc3[N+](=O)[O-])cc2)c([N+](=O)[O-])c1 |  | > 100 |  | > 100 |  | > 100 |  |  |  | > 100 |  |  |  | > 100 |  |  |  | > 100 |  | > 100
14 | O=C(O)c1cn(C2CC2)c2cc(N3CCN(C(=O)N(c4ccccc4)c4nc(-c5ccccc5)cs4)CC3)c(F)cc2c1=O | 0.351 | > 100 |  |  |  |  |  |  |  |  |  |  | 0.272 | 1.49 | 0.308 | > 100 | 1.09 | 32.6 |  | 
15 | Cc1ccccc1NC(=O)C1C(=O)N(c2ccccc2C)C(=O)/C1=N\NC(N)=O (stereo not given) |  | > 100 |  | > 100 |  | > 100 |  |  |  | > 100 |  |  |  | > 100 |  | > 100 |  | > 100 |  | 
16 | COc1ccc2cc3n(c(=O)c2c1)CCc1c-3cc(OC)c(OC)c1OC |  | > 100 |  | > 100 |  | > 100 |  |  |  | > 100 |  |  |  |  |  | > 100 |  | > 100 |  | > 100

Row | Compound | GI50 [1] [µM] | TGI [1] [µM] | GI50 [2] [µM] | TGI [2] [µM] | GI50 [3] [µM] | TGI [3] [µM] | GI50 [4] [µM] | TGI [4] [µM] | GI50 [5] [µM] | TGI [5] [µM] | GI50 [6] [µM] | TGI [6] [µM] | GI50 [7] [µM] | TGI [7] [µM] | GI50 [8] [µM] | TGI [8] [µM] | GI50 [9] [µM] | TGI [9] [µM] | GI50 [10] [µM] | TGI [10] [µM]
17 | COC(=O)N/N=C(\C)c1sc(-c2nc(C)c(/C(C)=N/NC(=O)OC)s2)nc1C |  | > 100 |  | > 100 |  | > 100 |  |  |  | > 100 |  |  |  | > 100 |  | > 100 |  | > 100 |  | > 100
18 | COc1ccc(C(C)Nc2cc(OC)c(OC)c(OC)c2)cc1 (stereo not given) |  | > 46.2 |  | > 100 |  | > 100 |  |  |  | > 100 |  |  |  | 20.9 |  | > 100 |  | > 100 |  | > 62.5
19 | CCN1CCN(CC(=O)Nc2nc3ccc(NCc4ccc(Br)cc4)cc3s2)CC1 | 1.54 | 3.3 |  |  |  |  | 3.3 | > 100 |  |  |  |  | 1.63 | 3.25 | 2.73 | > 100 | 2.24 | 4.55 |  | 
20 | N#Cc1c(CC(=O)O)cc(=O)n2c1[nH]c1ccccc12 |  | > 100 |  | > 100 |  | > 100 |  |  |  | > 100 |  |  |  | > 100 |  | > 100 |  | > 100 |  | > 100
21 | CNS(=O)(=O)NNS(=O)(=O)c1ccc(C)cc1 |  | > 100 |  | > 100 |  | > 100 |  |  |  | > 100 |  |  |  | > 100 |  | > 100 |  | > 100 |  | > 100
22 | CC1(C)CC2=NO[Se]3=C2C(=NO3)C1 |  | 10.4 |  | 10.1 |  | 9.41 |  |  |  | 20.5 |  | 3.24 |  | 9.18 |  | 13 |  | 19.5 |  | 13.1
23 | O=C1c2ccccc2N1C(=O)c1ccccc1[N+](=O)[O-] |  | > 100 |  | > 100 |  | > 100 |  |  |  | > 100 |  | > 100 |  |  |  |  |  | > 100 |  | > 100
24 | c1cc(OCCCCCOc2cccc(-c3nc4ccccc4[nH]3)c2)cc(-c2nc3ccccc3[nH]2)c1 | 2.07 | > 100 | 2.87 | > 100 |  |  | 1.99 | 7.91 | 2.76 | > 100 |  |  |  |  | 4.61 | > 100 | 3.88 | > 100 | 2.51 | 18.1
25 | CC(C)CCCC(C)C1CCC2C3CC([N+](=O)[O-])=C4CC(O)CCC4(C)C3CCC12C (stereo not given) |  | 28.9 |  | 55.5 |  | 88.2 |  |  |  |  |  |  |  | 50.9 |  | 32.1 |  | 39.6 |  | 
26 | O=C(CC1(O)C(=O)Nc2c(Cl)ccc(Cl)c21)c1ccc(Cl)cc1 (stereo not given) |  | 70.6 |  | 73.2 |  |  |  |  |  | > 100 |  |  |  | 56.8 |  | 34.1 |  | > 100 |  | 90.9
27 | O=c1c2cc(Br)ccc2nc(CNc2ccccc2)n1-c1ccccc1 |  | 33.9 |  | 46.2 |  | > 67.7 |  |  |  | > 100 |  |  |  | 44.4 |  | 29 |  | 45.5 |  | > 96.4
28 | Cc1ccccc1NC(=O)CC(=O)NNCC(=O)Nc1nnc(-c2ccccc2)s1 |  | > 100 |  | > 100 |  | > 100 |  |  |  | > 100 |  |  |  |  |  | > 100 |  | > 100 |  | 
29 | Nc1ccccc1C(=O)/C=C/c1ccccc1O |  | > 100 |  | > 100 |  | > 100 |  |  |  | > 100 |  |  |  | > 100 |  | > 100 |  | > 100 |  | > 100
30 | O=C(NO)c1ccc(CNc2cccc3nc(C4CC4)n(-c4ccccc4)c(=O)c23)cc1 |  |  | 2.16 | 5.62 | 2.79 | 23.3 | 1.28 | 6.45 | 2.06 | 6.1 |  |  | 1.42 | 3.14 | 2.4 | 10.9 | 1.73 | 7 | 2.15 | 5.4
31 | CN(C)c1ccc(/C=C2\CCc3ccccc3C2=O)cc1Br |  | > 100 |  | > 100 |  | > 100 |  |  |  | > 100 |  |  |  | > 100 |  | > 100 |  | > 100 |  | > 100
32 | CC(=O)NC(CCCNC(=O)OCc1ccccc1)C(=O)NCc1ccccc1 (stereo not given) |  | > 100 |  | > 100 |  | > 100 |  |  |  | > 100 |  |  |  | > 100 |  | > 100 |  | > 100 |  | > 100
